This note sets out measurements from patent US20120040977A1, “INHIBITORS OF HCV NS5A” (PRESIDIO PHARMACEUTICALS, INC., priority 2009, published 2012).

Bounds are passed on as bounds.

The test system of the assay is HCV genotype 1b replicon. The assay is described as follows: HCV replicon assay (HCV 1b_Huh-Luc/Neo-ET cell line, luciferase readout). It is filed as cell-based. Particulars: Hepatitis C virus; bicistronic genotype 1b replicon in Huh 7 cells, 72 h incubation, luciferase enzyme activity; read-out: Inhibition of HCV genotype 1b. On the procedure:
Biological activity of the compounds of the invention was determined using an HCV replicon assay. The HCV 1b_Huh-Luc/Neo-ET cell line persistently expressing a bicistronic genotype 1b replicon in Huh 7 cells was obtained from ReBLikon GMBH. This cell line was used to test compound inhibition using luciferase enzyme activity readout as a measurement of compound inhibition of replicon levels.
On Day 1 (the day after plating cells), each compound is added in triplicate to the cells. Plates are incubated for 72 h prior to determining luciferase levels. Enzyme activity was measured using a Bright-Glo Kit (cat. number E2620) manufactured by Promega Corporation. The following equation was used to generate a percent control value for each compound.
% Control=(Average Compound Value/Average Control)*100
The EC50 value was determined using GraphPad Prism and the following equation:
Y=Bottom+(Top−Bottom)/(1+10̂((LogIC50−X)*HillSlope))
EC50 values of compounds are determined several times in the replicon assay. […]
On the technique in general: Replicon systems follow genome replication, usually without infectious particles.
As to `COC(=O)N[C@H](C(=O)N[C@@H](C)c1ncc(-c2ccc(-c3ccc(C(=O)NC[C@@H]4CCCN4C(=O)[C@@H](NC(=O)OC)C(C)C)nc3)cc2)[nH]1)C(C)C` [Compound 92], the EC50 lay within 1 to 9.9 nM.
Turning to `COC(=O)N[C@@H](C(=O)N1CCC[C@H]1CNC(=O)c1ccc(-c2ccc(-c3cnc([C@@H]4CCCN4C(=O)[C@@H](c4ccccc4)N4CCCCC4)[nH]3)cc2)cc1)c1ccccc1` [Compound 61], the EC50 is < 1 nM.
`C[C@@H](NC(=O)OC(C)(C)C)C(=O)N1CCOC[C@H]1C(=O)Nc1ccc(-c2ccc(-c3cnc([C@@H]4CCCN4C(=O)[C@@H](C)NC(=O)OC(C)(C)C)[nH]3)cc2)cc1` [Compound 12]: the EC50 lay within 10 to 999 nM.
Regarding `CC(C)[C@@H](NC(=O)C1CC1)C(=O)N1CCOC[C@H]1C(=O)Nc1ccc(-c2ccc(-c3cnc([C@@H]4COCCN4C(=O)[C@H](NC(=O)C4CC4)C(C)C)[nH]3)cc2)cc1` [Compound 25], the EC50 is 1 to 9.9 nM.
On to `COC(=O)N[C@@H](C(=O)N1CCC[C@H]1CNC(=O)c1ccc(-c2ccc(-c3cnc([C@@H]4CCCN4C(=O)[C@H](NC(=O)OC)c4ccccc4)[nH]3)nc2)cc1)c1ccccc1` [Compound 91], for which the EC50 was < 1 nM.
As for `COC(=O)N[C@H](C(=O)N1CCC[C@H]1C(=O)NCc1ccc(-c2ccc(-c3cnc([C@@H]4CCCN4C(=O)[C@@H](NC(=O)OC)C(C)C)[nH]3)cc2)cn1)C(C)C` [Compound 119], the EC50 was 10 to 999 nM.
Under `O=C(NCc1ccc(-c2ccc(-c3cnc([C@@H]4CCCN4C(=O)[C@H](NC(=O)N4CCOCC4)c4ccccc4)[nH]3)cc2)cc1)[C@@H]1CCCN1C(=O)[C@H](NC(=O)N1CCOCC1)c1ccccc1` [Compound 44] stands 1 to 9.9 nM; under `COC(=O)N[C@H](C(=O)N1CCC[C@H]1C(=O)Nc1ccc(-c2ccc(-c3cnc([C@@H]4CCCN4C(=O)[C@@H](NC(=O)OC)C(C)C)[nH]3)cc2)cc1)C(C)C` [Compound 109], 10 to 999 nM; under `O=C(N[C@@H](C(=O)N1CCC[C@H]1COc1ccc(-c2ccc(-c3cnc([C@@H]4CCCN4C(=O)[C@H](NC(=O)N4CCOCC4)c4ccccc4)[nH]3)cc2)cc1)c1ccccc1)N1CCOCC1` [Compound 32], < 1 nM.
Consider `COC(=O)N[C@@H](C(=O)N1CCC[C@H]1C(=O)NCc1ccc(-c2ccc(-c3cnc([C@@H]4CCCN4C(=O)[C@H](NC(=O)OC)c4ccccc4)[nH]3)cc2)cn1)c1ccccc1` [Compound 120], for which the EC50 was < 1 nM.
Under `CC(C)(C)OC(=O)N[C@@H](C(=O)N1CCC[C@H]1C(=O)NCc1ccc(-c2ccc(-c3cnc([C@@H]4CCCN4C(=O)[C@H](NC(=O)OC(C)(C)C)c4ccccc4)[nH]3)cc2)cc1)c1ccccc1` [Compound 33] stands < 1 nM.
For the compound `COC(=O)N[C@@H](C(=O)N1CCC[C@H]1c1ncc(-c2ccc(-c3ccc(C(=O)NC[C@@H]4CCCN4C(=O)[C@@H](c4ccccc4)N(C)C)cc3)cc2)[nH]1)c1ccccc1` [Compound 65], the EC50 is < 1 nM.
Take `COC(=O)N[C@@H](C(=O)N1CCC[C@H]1C(=O)Nc1ccc(-c2ccc(-c3cnc([C@@H]4CCCN4C(=O)[C@H](NC(=O)OC)c4ccccc4)[nH]3)cn2)cc1)c1ccccc1` [Compound 72]: the EC50 was < 1 nM.
For the compound `CC(C)[C@@H](NC(=O)C1CC1)C(=O)N1CCC[C@H]1c1ncc(-c2ccc(Oc3ccc(-c4cnc([C@@H]5CCCN5C(=O)[C@H](NC(=O)C5CC5)C(C)C)[nH]4)cc3)cc2)[nH]1` [Compound 53], the EC50 is 1 to 9.9 nM.
As for `O=C(N[C@@H](C(=O)N1CCOC[C@H]1C(=O)Nc1ccc(-c2ccc(-c3cnc([C@@H]4COCCN4C(=O)[C@H](NC(=O)C4CC4)c4ccccc4)[nH]3)cc2)cc1)c1ccccc1)C1CC1` [Compound 1], the figure is < 1 nM; as for `COC(=O)N[C@@H](C(=O)N[C@@H](C)c1ncc(-c2ccc(-c3ccc(C(=O)NC[C@@H]4CCCN4C(=O)[C@H](NC(=O)OC)c4ccccc4)cc3)cc2)[nH]1)c1ccccc1` [Compound 89], < 1 nM; as for `CC(C)(C)OC(=O)N[C@@H](C(=O)N1CCC[C@H]1C(=O)Nc1ccc(-c2ccc(-c3cnc([C@@H]4CCCN4C(=O)[C@H](NC(=O)OC(C)(C)C)c4ccccc4)[nH]3)cc2)cc1)c1ccccc1` [Compound 26], < 1 nM.
For the compound `CC(C)(C)OC(=O)N[C@@H](C(=O)N1CCC[C@H]1c1ncc(-c2ccc(Sc3ccc(-c4cnc([C@@H]5CCCN5C(=O)[C@H](NC(=O)OC(C)(C)C)c5ccccc5)[nH]4)cc3)cc2)[nH]1)c1ccccc1` [Compound 46], the EC50 is < 1 nM.
In the case of `COC(=O)N[C@H](C(=O)N1CCC[C@H]1c1nc2c([nH]1)-c1ccc(-c3ccc(C(=O)NC[C@@H]4CCCN4C(=O)[C@H](NC(=O)OC)c4ccccc4)cc3)cc1CC2)C(C)C` [Compound 85], the EC50 was < 1 nM.
Turning to `COC(=O)N[C@H](C(=O)N1CCC[C@H]1CNC(=O)c1ccc(-c2ccc(-c3cnc([C@@H]4CCCN4C(=O)[C@@H](NC(=O)OC)C(C)C)[nH]3)nc2)cc1)C(C)C` [Compound 90], the EC50 fell in the range of 1 to 9.9 nM.
As for `COC(=O)N[C@H](C(=O)N1CCC[C@H]1C(=O)NCc1ccc(-c2ccc3cc(-c4cnc([C@@H]5CCCN5C(=O)[C@@H](NC(=O)OC)C(C)C)[nH]4)ccc3n2)cc1)C(C)C` [Compound 86], the figure is 1 to 9.9 nM; as for `COC(=O)N[C@@H](C(=O)N[C@@H](C)c1ncc(-c2ccc(-c3ccc(C(=O)NC[C@@H]4CCCN4C(=O)[C@H](NC(=O)OC)c4ccccc4)nc3)cc2)[nH]1)c1ccccc1` [Compound 93], < 1 nM.
Take `C[C@@H](NC(=O)C1CC1)C(=O)N1CCOC[C@H]1C(=O)Nc1ccc(-c2ccc(-c3cnc([C@@H]4CCCN4C(=O)[C@@H](C)NC(=O)C4CC4)[nH]3)cc2)cc1` [Compound 22]: the EC50 fell in the range of 1 to 9.9 nM.
In the case of `C[C@H](NC(=O)[C@@H]1CCCN1C(=O)[C@H](NC(=O)N1CCN(C)CC1)c1ccccc1)c1ccc(-c2ccc(-c3cnc([C@@H]4CCCN4C(=O)[C@H](NC(=O)N4CCN(C)CC4)c4ccccc4)[nH]3)cc2)cc1` [Compound 36], the EC50 was in the range of 1 to 9.9 nM.
As to `O=C(NC[C@@H]1CCCN1C(=O)[C@H](NC(=O)N1CCOCC1)c1ccccc1)c1ccc(-c2ccc(-c3cnc([C@@H]4CCCN4C(=O)[C@H](NC(=O)N4CCOCC4)c4ccccc4)[nH]3)cc2)cc1` [Compound 56], the EC50 is < 1 nM.
For the compound `COC(=O)N[C@H](C(=O)N1CCC[C@H]1c1ncc(-c2ccc(Oc3cccc(-c4cnc([C@@H]5CCCN5C(=O)[C@@H](NC(=O)OC)C(C)C)[nH]4)c3)cc2)[nH]1)C(C)C` [Compound 70], the EC50 was < 1 nM.
Turning to `O=C(N[C@@H](C(=O)N1CCC[C@H]1C(=O)Nc1ccc(-c2ccc(-c3cnc([C@@H]4COCCN4C(=O)[C@H](NC(=O)C4CC4)c4ccccc4)[nH]3)cc2)cc1)c1ccccc1)C1CC1` [Compound 11], the EC50 was < 1 nM.
On to `CN1CCN(C(=O)N[C@@H](C(=O)N2CCC[C@H]2CNC(=O)c2ccc(-c3ccc(-c4cnc([C@@H]5CCCN5C(=O)[C@H](NC(=O)N5CCN(C)CC5)c5ccccc5)[nH]4)cc3)cc2)c2ccccc2)CC1` [Compound 57], for which the EC50 lay in the range of 1 to 9.9 nM.
`CC(C)[C@@H](NC(=O)OC(C)(C)C)C(=O)N1CCC[C@H]1c1ncc(-c2ccc(Oc3ccc(-c4cnc([C@@H]5CCCN5C(=O)[C@H](NC(=O)OC(C)(C)C)C(C)C)[nH]4)cc3)cc2)[nH]1` [Compound 48]: the EC50 is 1 to 9.9 nM.
For `O=C(N[C@@H](C(=O)N1CCC[C@H]1c1ncc(-c2ccc(Sc3ccc(-c4cnc([C@@H]5CCCN5C(=O)[C@H](NC(=O)C5CC5)c5ccccc5)[nH]4)cc3)cc2)[nH]1)c1ccccc1)C1CC1` [Compound 50], the EC50 is < 1 nM.
For the compound `COC(=O)N[C@@H](C(=O)N1CCC[C@H]1C(=O)Nc1ccc(-c2ccc(-c3cnc([C@@H]4CCCN4C(=O)[C@@H](c4ccccc4)N(C)C)[nH]3)cc2)cc1)c1ccccc1` [Compound 59], the EC50 was < 1 nM.
On to `COC(=O)N[C@H](C(=O)N1CCC[C@H]1C(=O)N[C@@H](C)c1ccc(-c2ccc(-c3cnc([C@@H]4CCCN4C(=O)[C@@H](NC(=O)OC)C4CCOCC4)[nH]3)cc2)cc1)C1CCOCC1` [Compound 101], for which the EC50 fell in the range of 1 to 9.9 nM.
As for `COC(=O)N[C@@H](C(=O)N1CCC[C@H]1c1ncc(-c2ccc(-c3ccc(C(=O)NC[C@@H]4CCCN4C(=O)[C@@H](c4ccccc4)N4CCCCC4)cc3)cc2)[nH]1)c1ccccc1` [Compound 64], the EC50 was < 1 nM.
As to `COC(=O)N[C@H](C(=O)N1CCC[C@H]1C(=O)N[C@H](C)c1ccc(-c2ccc(-c3cnc([C@@H]4CCCN4C(=O)[C@@H](NC(=O)OC)[C@@H](C)OC)[nH]3)cc2)cc1)[C@@H](C)OC` [Compound 102], the EC50 lay within 10 to 999 nM.
`O=C(NC[C@@H]1CCCN1C(=O)[C@H](NC(=O)C1CC1)c1ccccc1)c1ccc(-c2ccc(-c3cnc([C@@H]4CCCN4C(=O)[C@H](NC(=O)C4CC4)c4ccccc4)[nH]3)cc2)cc1` [Compound 55]: the EC50 is < 1 nM.
Under `C[C@@H](NC(=O)C1CC1)C(=O)N1CCC[C@H]1C(=O)Nc1ccc(-c2ccc(-c3cnc([C@@H]4COCCN4C(=O)[C@@H](C)NC(=O)C4CC4)[nH]3)cc2)cc1` [Compound 19] stands 1 to 9.9 nM; under `CC(C)(C)OC(=O)N[C@@H](C(=O)N1CCC[C@H]1c1ncc(-c2ccc(Oc3ccc(-c4cnc([C@@H]5CCCN5C(=O)[C@H](NC(=O)OC(C)(C)C)c5ccccc5)[nH]4)cc3)cc2)[nH]1)c1ccccc1` [Compound 52], < 1 nM.
Under `COC(=O)N[C@H](C(=O)N1CCC[C@H]1CNC(=O)c1ccc(-c2ccc3c(ccc4nc([C@@H]5CCCN5C(=O)[C@@H](NC(=O)OC)C(C)C)[nH]c43)c2)cc1)C(C)C` [Compound 113] stands < 1 nM.
